Data published in patent US6767569B1, “Surface decontamination of cooked sausage and processed meat and poultry products” (priority 1999, dated 2004).
“And” between values parts separate entries of the source, which are not always exact repeats. Identical values can stand only once. Marks after values point to notes of the source that are not given here.

Columns and labels:
Listeria species = experiment: Dip treatment of inoculated frankfurters, qualitative (enrichment) procedure with TECRA Listeria ELISA; assay type: cell-based, Listeria monocytogenes; parameters: key: POS: Positive indicates that at least one colony grew during the test; NEG: Negative indicated that no colonies grew
Description: (§1) Following air drying, one frank per treatment was placed in a sterile Stomacher bag and analyzed quantitatively for residual L. monocytogenes populations. The remaining two franks were retained in sterile Stomacher bags and used for qualitative analysis, if necessary (in the event no surviving cells were detected using quantitative procedures).
The plating techniques used were capable of detection down to 5 cfu/ml (1 colony/0.2 ml) for the spiral plating method and 0.5 cfu/ml for the spread plating method (1 colony/2 ml). In the event that no surviving L. monocytogenes cells were observed using direct plating procedures, two franks per treatment were evaluated using qualitative (enrichment) procedures. A 10 mL aliquot of the retained homogenate was placed added to 90 mL of UVM broth to achieve a 1:10 dilution. These samples were shaken by hand for 1 minute and incubated at 30° C. for 24 h. Following this primary enrichment, 0.1 mL was transferred to 10 mL of Fraser broth and incubated at 30° C. for 24 h. This secondary enrichment was then used to perform an ELISA screening procedure (TECRA Listeria species assay). Results of this qualitative analysis were used to indicate whether the sample was “positive” or “negative” for the presence of Listeria species.
The target inoculation level before treatment was 1,000 CFU/frank. It can be seen that a 2 second treatment is sufficient to remove most, but not all Listeria from the franks. A 10 second treatment reduces the Listeria count below the detection limit of the quantitative assessment procedures, although a few colonies were detected in the qualitative procedure. […] Therefore, the true population of any samples with a population of <90 CFU/frank could not be specifically determined.

Listeria = experiment: Further tests: peracetic acid sprayed over the frankfurters; assay type: cell-based, Listeria monocytogenes; details: 2000 ppm sprayed over the frankfurters for 30 seconds to one minute
Listeria monocytogenes = experiment: Dip treatment of Listeria monocytogenes-inoculated frankfurters, quantitative plating on MOX agar; assay type: cell-based
Description: A five-strain mixture of Listeria monocytogenes was used for purposes of inoculation. To prepare this mixture, five strains of L. monocytogenes were grown individually in tryptic soy broth (TSB), for 48±2 h at 30° C. Equivalent aliquots of broth from each strain were then combined in a sterile test tube to achieve a mixed inoculum containing approximately equal populations of each of the five strains. The mixed culture was diluted as appropriate using 0.1% peptone diluent to achieve a final mixed inoculum with a cell density of approximately 10,000 colony forming units (cfu)/ml.
Packages of commercially prepared beef frankfurter sausages (“franks”) were obtained from a local retail outlet. The packages were stored at 4° C. until use (no more than 24 hours). Immediately prior to testing, the franks were removed from the commercial packaging and placed on a sterile surface in a biological safety cabinet. The franks were oriented on the surface such that no franks were in contact with each other. Using a micropipette, each individual frank (except for those used as controls) was inoculated with 0.1 ml of the previously prepared mixed inoculum with a target inoculation level of 1,000 cfu/frank. A sterile bent rod was used to spread the inoculum over the frank surface as evenly as possible. Inoculated franks were allowed to remain undisturbed on the sterile surface for at least 5 minutes prior to treatment with the decontaminant solution. Three franks were inoculated per treatment to be evaluated, one frank being tested without inoculation.
The peracetic acid used in the evaluation was obtained as a 35% concentrate under the trade name STERIS 20™ Sterilant Concentrate from STERIS Corporation (Mentor, Ohio). The concentrate was used without the buffers or other additives supplied by the manufacturer. The concentrate was diluted to appropriate nominal concentrations (100, 500, and 1000 ppm). Approximately 1 L of each concentration to be evaluated was prepared in sanitized 2 L, plastic containers. Additionally, 1 L of a control treatment, namely sterile distilled water (0 ppm peracetic acid), was also prepared in a 2 L container. Each of these four concentrations was evaluated using two exposure times, 2 and 10 seconds. Therefore, a total of eight treatments (four peracetic acid concentrations (0, 100, 500, and 1000 ppm) at two exposure times (2 and 10 seconds) were evaluated in this study. Each test was carried out two or more times for establishing reproducibility.
All peracetic acid treatments were performed inside a biological safety cabinet. Inoculated franks were dipped into the peracetic acid treatment solution (or distilled water for the 0 ppm samples) and allowed to remain submerged for either 2 or 10 seconds. Sterile utensils were employed to remove the franks from the treatment solution and transfer them to a sterile distilled water rinse. Franks were then submerged in a sterile water rinse and remained submerged for 2 or 10 seconds (i.e., the same time as they were exposed to the peracetic acid solution) and were removed with sterile utensils. Immediately after removal from the sterile water rinse, the franks were placed on a sterile surface and allowed to air dry for 5 minutes.
as §1
To determine the number of surviving L. monocytogenes cells (quantitative evaluation), one frank per treatment was analyzed. The weight of the frank was determined and an appropriate volume of 0.1% peptone diluent added to achieve a 1:5 dilution. These samples were homogenized for 2 minutes using a Stomacher Lab Blender. […]

CC(=O)OO [peracetic acid]
POS/NEG (qualitative analysis after treatment) (Listeria species; PAA 100 ppm (actual 114 ppm), 2 sec exposure, 2 sec rinse): POS
POS/NEG (qualitative analysis after treatment) (Listeria species; PAA 100 ppm (actual 114 ppm), 10 sec exposure, 10 sec rinse): POS
POS/NEG (qualitative analysis after treatment) (Listeria species; PAA 500 ppm (actual 572 ppm), 2 sec exposure, 2 sec rinse): POS
POS/NEG (qualitative analysis after treatment) (Listeria species; PAA 500 ppm (actual 572 ppm), 10 sec exposure, 10 sec rinse): POS and NEG
POS/NEG (qualitative analysis after treatment) (Listeria species; PAA 1000 ppm (actual 1146 ppm), 2 sec exposure, 2 sec rinse): NEG and POS
POS/NEG (qualitative analysis after treatment) (Listeria species; PAA 1000 ppm (actual 1146 ppm), 10 sec exposure, 10 sec rinse): NEG and POS
kill level (Listeria): complete kill
After treatment (CFU/frank) (Listeria monocytogenes; PAA 100 ppm (actual 114 ppm), 2 sec exposure followed by 2 sec deionized water rinse): 180 CFU/frank and <90* CFU/frank and 90 CFU/frank
After treatment (CFU/frank) (Listeria monocytogenes; PAA 100 ppm (actual 114 ppm), 2 sec exposure followed by 2 sec deionized water rinse, listed as PAA): at least 90 CFU/frank
After treatment (CFU/frank) (Listeria monocytogenes; PAA 100 ppm (actual 114 ppm), 10 sec exposure followed by 10 sec deionized water rinse, target inoculation 1,000 CFU/frank): <90* CFU/frank and 180 CFU/frank
After treatment (CFU/frank) (Listeria monocytogenes; PAA 100 ppm (actual 114 ppm), 10 sec exposure followed by 10 sec deionized water rinse, target inoculation 1,000 CFU/frank, listed as PAA): at least 90 CFU/frank
After treatment (CFU/frank) (Listeria monocytogenes; PAA 500 ppm (actual 572 ppm), 2 sec exposure followed by 2 sec deionized water rinse): <90* CFU/frank and 90 CFU/frank
After treatment (CFU/frank) (Listeria monocytogenes; PAA 500 ppm (actual 572 ppm), 2 sec exposure followed by 2 sec deionized water rinse, listed as PAA): < 90 CFU/frank
After treatment (CFU/frank) (Listeria monocytogenes; PAA 500 ppm (actual 572 ppm), 10 sec exposure followed by 10 sec deionized water rinse): <90* CFU/frank
After treatment (CFU/frank) (Listeria monocytogenes; PAA 500 ppm (actual 572 ppm), 10 sec exposure followed by 10 sec deionized water rinse, listed as PAA): less than the detection limit of the quantitative plating procedure
After treatment (CFU/frank) (Listeria monocytogenes; PAA 1000 ppm (actual 1146 ppm), 2 sec exposure followed by 2 sec deionized water rinse): <90* CFU/frank
After treatment (CFU/frank) (Listeria monocytogenes; PAA 1000 ppm (actual 1146 ppm), 2 sec exposure followed by 2 sec deionized water rinse, listed as PAA): < 90 CFU/frank
After treatment (CFU/frank) (Listeria monocytogenes; PAA 1000 ppm (actual 1146 ppm), 10 sec exposure followed by 10 sec deionized water rinse): <90* CFU/frank
After treatment (CFU/frank) (Listeria monocytogenes; PAA 1000 ppm (actual 1146 ppm), 10 sec exposure followed by 10 sec deionized water rinse, listed as PAA): < 90 CFU/frank
